Literature values in patent publication US8911774B2, “Topical composition for anti-aging skin treatment using dual DNA repair mechanism and method of use” (Cellhealth Technologies Ltd., priority 2009, dated 2014).

Key:
melanin synthesis = conditions: at a concentration of 0.1%
skin damage = conditions: shown clinically

## CC1(C)C=Cc2c(ccc3c2OC[C@@H](c2ccc(O)cc2O)C3)O1 [Glabridin]
tyrosinase
  tyrosinase-inhibition activity relative to Kojic acid: 25 times
  tyrosinase-inhibition activity relative to ascorbic acid: 75 times

## CCCCCCCCC(CCCCCC)C(=O)OC[C@H](OC(=O)C(CCCCCC)CCCCCCCC)[C@H]1OC(=O)C(OC(=O)C(CCCCCC)CCCCCCCC)=C1OC(=O)C(CCCCCC)CCCCCCCC (stereo partly drawn) [tetrahexyldecyl ascorbate]
p53
  p53 expression induced by UV-B radiation: decreases
Melanin synthesis
  reduction of melanin synthesis: 80%
8-OHdG
  8-OHdG induced by UV-A radiation: decreases

## Tocotrienol
Skin damage
  strength and effectiveness at repairing skin damage relative to regular Vitamin E: 40-50 times
